US20130212744A1, “METHOD OF REDUCING INSECT-VECTORED VIRAL INFECTIONS” (priority 2010, published 2013)

Test system: TYLCV (tomato yellow leaf curl virus)
Assay: Foliar use field trial on tomato, infected leaf area by TYLC virus
Assay type: in vivo
Procedure: Two studies were carried out in Elhasanya, Egypt in 2009 on tomato plants of the variety Fayrouz with the main goal to measure efficacy on the whitefly Bemisia tabaci. The plot size was 4.8 m^2 and 6 replicates were used in the trial. Products were applied 3 times on young tomato plants at BBCH stages 14, 17 and 51 at spray intervals between 12 and 19 days. The spray volume was at the first application 350 l/ha and later 500 l/ha. The evaluation of this study was done counting the adult whiteflies (Bemisia tabaci) as well as the nymphs and the eggs in each plot. In addition to the direct whitefly effect, visual symptoms of the virus, mainly TYLCV (tomato yellow leaf curl virus) were evaluated also.
ASM=Acibenzolar-S-methyl. WG 50=Actigard® 50WG, a water-dispersible granule with the active ingredient ASM CYNT=Cyantraniliprole. WG 40=Cyazypyr®, a water dispersable granule with the active ingredient CYNT. Results on whitefly adults. Trial 1
Evaluation of percentage of infected leaf area by TYLC virus (average of 45 plants evaluated per treatment) Trial 1

With `CSC(=O)c1cccc2nnsc12` [ASM, S-methyl benzo[1,2,3]thiadiazole-7-carbothioate] the “% Infected Surface area with virus / plant” value (12.5 g ai/hl, 5DAA2, Trial 1) was 0.0%, the “% Infected Surface area with virus / plant” value (12.5 g ai/hl, 5DAA2, Trial 2) was 0.0% and the “% Infected Surface area with virus / plant” value (12.5 g ai/hl, 5DAA3, Trial 1) was 1.0%. The “% Infected Surface area with virus / plant” value (12.5 g ai/hl, 5DAA3, Trial 2) was 1.0%, the “% Infected Surface area with virus / plant” value (12.5 g ai/hl, 10DAA3, Trial 1) was 9.6% and the “% Infected Surface area with virus / plant” value (12.5 g ai/hl, 10DAA3, Trial 2) was 9.6%. For the same compound, the “% Infected Surface area with virus / plant” value (12.5 g ai/hl, 15DAA3, Trial 1) was 9.9%, the “% Infected Surface area with virus / plant” value (12.5 g ai/hl, 15DAA3, Trial 2) was 9.9% and the “% Infected Surface area with virus / plant” value (12.5 g ai/hl, 20DAA3, Trial 1) was 10.7%. For the same compound, the “% Infected Surface area with virus / plant” value (12.5 g ai/hl, 20DAA3, Trial 2) was 10.7%, the “% Infected Surface area with virus / plant” value (12.5 g ai/hl, 24DAA3, Trial 1) was 14.4% and the “% Infected Surface area with virus / plant” value (12.5 g ai/hl, 24DAA3, Trial 2) was 14.4%. The “% Infected Surface area with virus / plant” value (25 g ai/hl, 5DAA2, Trial 1) was 0.0%, the “% Infected Surface area with virus / plant” value (25 g ai/hl, 5DAA2, Trial 2) was 0.0% and the “% Infected Surface area with virus / plant” value (25 g ai/hl, 5DAA3, Trial 1) was 0.0%. The “% Infected Surface area with virus / plant” value (25 g ai/hl, 5DAA3, Trial 2) was 0.0%, the “% Infected Surface area with virus / plant” value (25 g ai/hl, 10DAA3, Trial 1) was 3.3% and the “% Infected Surface area with virus / plant” value (25 g ai/hl, 10DAA3, Trial 2) was 3.3%. The “% Infected Surface area with virus / plant” value (25 g ai/hl, 15DAA3, Trial 1) was 4.7%, the “% Infected Surface area with virus / plant” value (25 g ai/hl, 15DAA3, Trial 2) was 4.7% and the “% Infected Surface area with virus / plant” value (25 g ai/hl, 20DAA3, Trial 1) was 5.0%. For the same compound, the “% Infected Surface area with virus / plant” value (25 g ai/hl, 20DAA3, Trial 2) was 5.0%, the “% Infected Surface area with virus / plant” value (25 g ai/hl, 24DAA3, Trial 1) was 7.2% and the “% Infected Surface area with virus / plant” value (25 g ai/hl, 24DAA3, Trial 2) was 7.2%.
`CNC(=O)c1cc(C#N)cc(C)c1NC(=O)c1cc(Br)nn1-c1ncccc1Cl` [CYNT, 3-bromo-1-(3-chloro-2-pyridyl)-4′-cyano-2′-methyl-6′-(methylcarbamoyl)pyrazole-5-carboxanilide] was tested, and the “% Infected Surface area with virus / plant” value (75 g ai/hl, 5DAA2, Trial 1) was 0.0%, the “% Infected Surface area with virus / plant” value (75 g ai/hl, 5DAA2, Trial 2) was 0.0% and the “% Infected Surface area with virus / plant” value (75 g ai/hl, 5DAA3, Trial 1) was 3.0%. The “% Infected Surface area with virus / plant” value (75 g ai/hl, 5DAA3, Trial 2) was 3.0%, the “% Infected Surface area with virus / plant” value (75 g ai/hl, 10DAA3, Trial 1) was 5.1% and the “% Infected Surface area with virus / plant” value (75 g ai/hl, 10DAA3, Trial 2) was 5.1%. For the same compound, the “% Infected Surface area with virus / plant” value (75 g ai/hl, 15DAA3, Trial 1) was 7.1%, the “% Infected Surface area with virus / plant” value (75 g ai/hl, 15DAA3, Trial 2) was 7.1% and the “% Infected Surface area with virus / plant” value (75 g ai/hl, 20DAA3, Trial 1) was 9.8%. For the same compound, the “% Infected Surface area with virus / plant” value (75 g ai/hl, 20DAA3, Trial 2) was 9.8%, the “% Infected Surface area with virus / plant” value (75 g ai/hl, 24DAA3, Trial 1) was 10.3% and the “% Infected Surface area with virus / plant” value (75 g ai/hl, 24DAA3, Trial 2) was 10.3%. The “% Infected Surface area with virus / plant” value (100 g ai/hl, 5DAA2, Trial 1) was 0.8%, the “% Infected Surface area with virus / plant” value (100 g ai/hl, 5DAA2, Trial 2) was 0.8% and the “% Infected Surface area with virus / plant” value (100 g ai/hl, 5DAA3, Trial 1) was 1.9%. The “% Infected Surface area with virus / plant” value (100 g ai/hl, 5DAA3, Trial 2) was 1.9%, the “% Infected Surface area with virus / plant” value (100 g ai/hl, 10DAA3, Trial 1) was 3.1% and the “% Infected Surface area with virus / plant” value (100 g ai/hl, 10DAA3, Trial 2) was 3.1%. For the same compound, the “% Infected Surface area with virus / plant” value (100 g ai/hl, 15DAA3, Trial 1) was 3.9%, the “% Infected Surface area with virus / plant” value (100 g ai/hl, 15DAA3, Trial 2) was 3.9% and the “% Infected Surface area with virus / plant” value (100 g ai/hl, 20DAA3, Trial 1) was 4.5%. For the same compound, the “% Infected Surface area with virus / plant” value (100 g ai/hl, 20DAA3, Trial 2) was 4.5%, the “% Infected Surface area with virus / plant” value (100 g ai/hl, 24DAA3, Trial 1) was 5.3% and the “% Infected Surface area with virus / plant” value (100 g ai/hl, 24DAA3, Trial 2) was 5.3%.
